Read-outs that look alike come from different tables or passages of the source.
Legend:
KAT2A = KAT2A (Homo sapiens (Human), UniProt Q92830); assay: KAT2A acetyltransferase biochemical assay (RapidFire mass spectrometry, AcCoA to CoA)
Procedure: • A) Compound preparation • 1) Prepare 10 mM stock solutions in 100% DMSO from solid material. • 2) Serial dilute 10 mM, 1 mM, 0.1 or 0.01 mM compound stocks 3-fold in 100% DMSO for 11-point dose response. • B) Reagent preparation • 1) Prepare 1×assay buffer containing 40 mM bis tris propane pH 8.0, 10 mM NaCl, 0.5 mM EDTA, and 0.002% Tween-20. • 2) Dilute Histone peptide (CPC Scientific) and KAT enzyme together in assay buffer to 1.25×. • 3) Dilute AcCoA (Sigma) in assay buffer to 5×. • C) Enzyme reaction • 1) Final reaction conditions for each KAT assay in a 100ul assay reaction volume: • i) KAT2A 0.5 nM, 1 uM AcCoA, 5 uM H3 1-21 peptide, 90-minute reaction • ii) KAT2B 0.5 nM, 1 uM AcCoA, 5 uM H3 1-21 peptide, 90-minute reaction • 2) Add 2 ul of diluted compound series to the assay plate (96-well round-bottom polypropylene plates) or 2 ul of DMSO for control wells. • 3) Add 11 μL of 10% formic acid to 100% effect (HPE) control wells. • 4) Add 80 ul of 1.25× Histone peptide/KAT mix to the assay plate via Multidrop Combi (ThermoFisher). Incubate 15 min at room temperature. • 5) Add 20 ul of 5× AcCoA to the assay plate via Multidrop Combi. • 6) Stop the reaction after the indicated time with the addition of 11 ul of 10% formic acid via Multidrop Combi. • 7) Each reaction was analyzed using Rapid Fire mass spectrometry platform.
KAT enzymes were expressed using a baculovirus expression system and purified at Pfizer, La Jolla. […] Acetyl coenzyme A was purchased from Sigma-Aldrich (St. Louis, MO). All other biochemical reagents were purchased from Sigma-Aldrich or ThermoFisher Scientific (Waltham, MA).
KAT assays were performed at room temperature in assay buffer containing 1 μM AcCoA, 5 μM histone peptide, 40 mM bis tris propane pH 8.0, 10 mM NaCl, 0.5 mM EDTA 0.002% Tween-20. 80 ul of 1.25× Histone peptide/enzyme mix was added to a 96-well round-bottom polypropylene assay plate containing 2 ul of serially diluted test compound in 100% dimethyl sulfoxide (DMSO). To start the reaction, 20 ul of 5× AcCoA solution was added to the assay plate. KAT assays were terminated after 90 minutes with the addition of 11 ul of 10% formic acid. All assays used histone H3 (1-21) peptide. The final enzyme concentration for each KAT was as follows: KAT2A, 0.5 nM; KAT2B, 0.5 nM. […] Each reaction was analyzed using Rapid Fire mass spectrometry platform. This methodology leverages an Agilent 6495 triple quadrupole (QQQ) mass spectrometer coupled to a RapidFire model 365 to specifically capture and measure KAT2 acetyltransferase activity, converting AcCoA (substrate) to CoA (product).
Area under the curve (AUC) for both substrate and product peaks was determined for KAT2 at M.W. 809.6 [Substrate+H]+ and 767.3 [Product+H]+ with a +/−1 Da tolerance, respectively. Acetyltransferase activity (% of DMSO control) was calculated by: ((AUCProduct/AUCsubstrate)-AUCHPE)/(AUCZPE-AUCHPE))*100. Ki values were determined by fitting the % acetyltransferase activity at each inhibitor concentration to the Morrison equation for tightbinding competitive inhibitors using Pfizer proprietary curve fitting software.
To determine the inhibition of KAT enzymatic activity by test compounds, assay reactions were conducted in a volume of 100 μL in 96-well round-bottom polypropylene assay plate. The reactions were performed in assay buffer (40 mM bis tris propane, pH 8, 10 mM NaCl, 0.5 mM EDTA, 0.002% Tween-20).

MM.1S cells = assay: MM1.S 10 Day Proliferation Assay (CellTiter-Glo); format: cell-based, Human
Procedure: Human B lymphoblast cell line MM.1S was obtained from American Type Culture Collection (ATCC), Manassas, VA USA, Cat. MM.1S (ATCC® CRL-2974™). Cells were cultured in RPMI (Thermo Fisher Scientific/Gibco Life Technologies Cat. #111875-093) plus 10% (v/v) FBS (Thermo Fisher Scientific/Gibco Life Technologies Cat. #26140-079) and 1% Penicillin-Streptomycin (Thermo Fisher Scientific/Gibco Life Technologies Cat. #15070063) at 37° C. in 5% CO2.
MM1.S cells were trypsinized cell viability count performed, and cells suspended in complete media at 5,556 cells/ml. Cells were then seeded (90 μl/well) into a 96-well round black/clear bottom, ULA (Ultra-Low Attachment surface plate (Corning cat #4520) at a density of 500 cells/well. Cells were then incubated for 16 hours at 37° C. and 5% CO2. Compound dilution plates were prepared in 96-well, clear U-bottom, polypropylene plates (Corning 3365) in 100% DMSO at 10 mM stock concentration in duplicate wells, using a 10-point serial dilution (1:3 dilutions). Compounds were diluted to 1:100 in growth medium. Then 10 μl of diluted compounds were added to each well of the cell plates using a Beckman FX liquid handling system such that the highest compound concentration tested was 10 μM final, with a 0.1% final DMSO concentration in the total volume of 100 μl. Plates were incubated for 10 total days at 37° C. and 5% CO2. Fresh media containing compound was refreshed at 5 days treatment.
Finally, the treatment plates were removed from the incubator and 100 μl of CellTiter-Glo Luminescent reagent was added to each well, and plates were equilibrated in the dark for 30 minutes. Plates were read on the PHERAstar plate reader using the 96-well with Luminescent reading mode. IC50 values were calculated using a four-parameter fit with GraphPad Prism version 9.5.1 or in house modified IDBS ActivityBase data analyzing package.

H3K9AC (HT1080 cells) = assay: H3K9AC Sandwich ELISA Assay in HT1080 cells (KAT2A primary cell-based screening assay); design: species or system Human
Method in brief: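 HT1080 fibrosarcoma cells seeded 16 h, then treated 24 h at 37 °C with 10-point 1:3 compound dilutions (top 10 µM final, 0.1% DMSO). Acid lysates neutralized with butyrate/PMSF; H3K9ac measured by total-H3-capture sandwich ELISA with luminescent HRP readout, IC50 by four-parameter fit.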

[1] = read-out: KAT2A Ki at 1 μM AcCoA, 5 μM H3 1-21 peptide, 0.5 nM KAT2A, 90-minute reaction
[2] = Homo sapiens, HT-1080, H3K9AC sandwich ELISA

KAT2A, sequence (Q92830 whole entry): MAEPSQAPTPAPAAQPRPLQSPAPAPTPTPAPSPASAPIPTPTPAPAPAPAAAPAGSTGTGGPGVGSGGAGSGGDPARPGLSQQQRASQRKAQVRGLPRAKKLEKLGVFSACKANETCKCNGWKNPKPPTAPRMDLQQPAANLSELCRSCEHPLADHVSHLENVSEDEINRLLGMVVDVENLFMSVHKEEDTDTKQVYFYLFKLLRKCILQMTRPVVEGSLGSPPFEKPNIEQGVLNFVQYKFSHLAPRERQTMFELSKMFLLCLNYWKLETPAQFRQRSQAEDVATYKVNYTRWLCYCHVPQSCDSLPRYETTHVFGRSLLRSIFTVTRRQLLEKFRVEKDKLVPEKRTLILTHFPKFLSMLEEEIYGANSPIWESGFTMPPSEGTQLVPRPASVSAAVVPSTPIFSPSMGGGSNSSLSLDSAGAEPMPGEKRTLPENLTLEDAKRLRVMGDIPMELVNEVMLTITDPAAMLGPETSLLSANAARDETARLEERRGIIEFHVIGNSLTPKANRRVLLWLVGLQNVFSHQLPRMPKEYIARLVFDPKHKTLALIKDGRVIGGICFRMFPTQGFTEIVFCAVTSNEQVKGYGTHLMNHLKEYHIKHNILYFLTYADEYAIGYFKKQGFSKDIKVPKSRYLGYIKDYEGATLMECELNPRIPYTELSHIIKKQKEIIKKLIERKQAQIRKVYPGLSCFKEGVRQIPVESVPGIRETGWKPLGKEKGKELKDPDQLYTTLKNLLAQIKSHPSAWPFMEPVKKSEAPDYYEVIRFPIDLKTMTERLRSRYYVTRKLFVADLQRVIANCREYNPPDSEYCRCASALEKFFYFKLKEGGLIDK

Structure (SMILES) | Ki (KAT2A; [1]) | IC50 (MM.1S cells) | IC50 (H3K9AC (HT1080 cells); [2]) | IC50 (H3K9AC (HT1080 cells); H3K9AC sandwich ELISA) | IC50 (MM.1S cells; Homo sapiens, MM1.S, 240 h) | Ki (KAT2A; KAT2A Ki at 1 μM AcCoA, 5 μM H3 1-21 peptide, 0.5 nM KAT2A, 90-minute reaction)
C[C@H](C(=O)O)c1ccc(O[C@@H]2CC[C@@H](NC(=O)[C@@]3(F)CNC4(CCC4)C3)C2)c(-c2cccc(F)c2C2CCC2)c1 (single isomer, unassigned) [Example A19] | 2.4 nM | 431 nM | 10 nM | – | – | –
C[C@H](C(=O)O)c1ccc(O[C@@H]2CC[C@@H](NC(=O)[C@@]3(F)CNC4(CCC4)C3)C2)c(-c2cccc(F)c2C2CCC2)c1 (single isomer, unassigned) [Example A20] | 2.53 nM | 186 nM | – | 9.3 nM | – | –
CC(C)c1c(F)cccc1-c1cc(C(C)(C)C(=O)O)ccc1O[C@@H]1CC[C@@H](NC(=O)[C@@]2(F)CNC3(CCC3)C2)C1 (single isomer, unassigned) [Example A21] | > 99.9 nM | > 10000 nM | – | > 1000 nM | – | –
CC(C)c1c(F)cccc1-c1cc(C(C)(C)C(=O)O)ccc1O[C@@H]1CC[C@@H](NC(=O)[C@@]2(F)CNC3(CCC3)C2)C1 (single isomer, unassigned) [Example A22] | 0.34 nM | 101 nM | – | 4.33 nM | – | –
O=C(O)Cc1ccc(O[C@@H]2CC[C@@H](NC(=O)[C@@]3(F)CNC4(CCCC4)C3)C2)c(-c2cccc(F)c2C2CCC2)c1 (single isomer, unassigned) [Example A25] | 0.68 nM | – | – | 4.22 nM | 26 nM | –
CC(C)(C(=O)O)c1ccc(O[C@@H]2CC[C@@H](NC(=O)[C@@]3(F)CNCC4(CCC4)C3)C2)c(-c2cccc(F)c2C2CCC2)c1 (single isomer, unassigned) [Example A27] | 0.16 nM | – | – | 7.6 nM | 26.3 nM | –
O=C(O)c1ccc(O[C@@H]2CC[C@@H](NC(=O)[C@@]3(F)CNCC4(CCC4)C3)C2)c(-c2cccc(F)c2C2CCC2)c1 (single isomer, unassigned) [Example A34] | 0.21 nM | – | – | 1.4 nM | 7.8 nM | –
O=C(O)c1ccc(O[C@@H]2CC[C@@H](NC(=O)[C@@]3(F)CNC4(CCCC4)C3)C2)c(-c2cccc(F)c2C2CCC2)c1 (single isomer, unassigned) [Example A36] | 0.1 nM | – | – | 0.7 nM | 3.5 nM | –
CC1(C)CNCC(F)(C(=O)N[C@@H]2CC[C@@H](Oc3ccc(C(=O)O)cc3-c3cccc(F)c3C3CCC3)C2)C1 (single isomer, unassigned) [Example A38] | 0.02 nM | – | – | 4 nM | 18.3 nM | –
CC(C)c1ccccc1-c1cc(C(=O)O)ccc1O[C@@H]1CC[C@@H](NC(=O)[C@@]2(F)CNC3(CCCC3)C2)C1 (single isomer, unassigned) [Example A40] | > 99.9 nM | > 1000 nM | – | > 1000 nM | – | –
CCc1c(F)cccc1-c1cc(C(=O)O)ccc1O[C@@H]1CC[C@@H](NC(=O)[C@@]2(F)CNC3(CCCC3)C2)C1 (single isomer, unassigned) [Example A42] | 0.41 nM | 37.4 nM | – | 8.4 nM | – | –
CCc1c(F)cccc1-c1cc(C(=O)O)ccc1O[C@@H]1CC[C@@H](NC(=O)[C@@]2(F)CNC3(CCCC3)C2)C1 (single isomer, unassigned) [Example A43] | > 99.9 nM | > 1000 nM | – | > 1000 nM | – | –

Further lines, results first:

Ki (KAT2A; [1]) | IC50 (MM.1S cells) | IC50 (H3K9AC (HT1080 cells); [2]) | IC50 (H3K9AC (HT1080 cells); H3K9AC sandwich ELISA) | IC50 (MM.1S cells; Homo sapiens, MM1.S, 240 h) | Ki (KAT2A; KAT2A Ki at 1 μM AcCoA, 5 μM H3 1-21 peptide, 0.5 nM KAT2A, 90-minute reaction) | Structure (SMILES)
0.09 nM | – | 9.93 nM | – | 13.3 nM | – | CC(C)(C(=O)NS(=O)(=O)N1CC(F)C1)c1ccc(O[C@@H]2CC[C@@H](NC(=O)[C@@]3(F)CNC4(CCC4)C3)C2)c(-c2cccc(F)c2C2CCC2)c1 (single isomer, unassigned) [Example B5]
3.78 nM | – | 20.9 nM | – | 102 nM | – | CN1C[C@](F)(C(=O)N[C@@H]2CC[C@@H](Oc3ccc(C(C)(C)C(=O)NS(C)(=O)=O)cc3-c3cccc(F)c3C3CCC3)C2)CC1(C)C (single isomer, unassigned) [Example B7]
0.18 nM | – | 1.4 nM | – | 14.1 nM | – | CC(C)(C(=O)NS(=O)(=O)C1CC1)c1ccc(O[C@@H]2CC[C@@H](NC(=O)[C@]3(F)CNC4(CCC4)C3)C2)c(-c2cccc(F)c2C2CCC2)c1 (single isomer, unassigned) [Example B12]
1.83 nM | 553 nM | – | 49.1 nM | – | – | CCS(=O)(=O)NC(=O)C(C)(C)c1ccc(O[C@@H]2CC[C@@H](NC(=O)[C@@]3(F)CNC(C)(C)C3)C2)c(-c2cccc(F)c2C2CCC2)c1 (single isomer, unassigned) [Example B14]
– | – | 2.68 nM | – | 11.6 nM | 0.08 nM | CS(=O)(=O)NC(=O)Cc1ccc(O[C@@H]2CC[C@@H](NC(=O)C3(F)CNC4(CCCC4)C3)C2)c(-c2cccc(F)c2C2CCC2)c1 (single isomer, unassigned) [Example B16]
0.1 nM | 41.7 nM | – | 3.49 nM | – | – | CC(C)S(=O)(=O)NC(=O)C(C)(C)c1ccc(O[C@@H]2CC[C@@H](NC(=O)[C@@]3(F)CNC(C)(C)C3)C2)c(-c2cccc(F)c2C2CCC2)c1 (single isomer, unassigned) [Example B17]
16.1 nM | 1270 nM | – | 121 nM | – | – | CC(C)S(=O)(=O)NC(=O)C(C)(C)c1ccc(O[C@@H]2CC[C@@H](NC(=O)[C@@]3(F)CNC(C)(C)C3)C2)c(-c2cccc(F)c2C2CCC2)c1 (single isomer, unassigned) [Example B18]
0.09 nM | – | 2.38 nM | – | 2.51 nM | – | CCS(=O)(=O)NC(=O)C(C)(C)c1ccc(O[C@@H]2CC[C@@H](NC(=O)[C@@]3(F)CNCC(C)(C)C3)C2)c(-c2cccc(F)c2C2CCC2)c1 (single isomer, unassigned) [Example B22]
0.06 nM | – | 2.2 nM | – | 7.4 nM | – | CC(C)(C(=O)NS(=O)(=O)C1CC1)c1ccc(O[C@@H]2CC[C@@H](NC(=O)[C@@]3(F)CNC4(CCCC4)C3)C2)c(-c2cccc(F)c2C2CCC2)c1 (single isomer, unassigned) [Example B26]
0.09 nM | – | 1.7 nM | – | 4.2 nM | – | CC(C)S(=O)(=O)NC(=O)C(C)(C)c1ccc(O[C@@H]2CC[C@@H](NC(=O)[C@@]3(F)CNCC(C)(C)C3)C2)c(-c2cccc(F)c2C2CCC2)c1 (single isomer, unassigned) [Example B30]
0.04 nM | – | – | 2.1 nM | 1.4 nM | – | CCS(=O)(=O)NC(=O)C(C)(C)c1ccc(O[C@@H]2CC[C@@H](NC(=O)[C@@]3(F)CNCC4(CCC4)C3)C2)c(-c2cccc(F)c2C2CCC2)c1 (single isomer, unassigned) [Example B31]
0.04 nM | – | 3.1 nM | – | 8.4 nM | – | CC(C)(C(=O)NS(=O)(=O)C1(C)CC1)c1ccc(O[C@@H]2CC[C@@H](NC(=O)[C@@]3(F)CNC4(CCC4)C3)C2)c(-c2cccc(F)c2C2CCC2)c1 (single isomer, unassigned) [Example B34]
2.22 nM | – | 21.6 nM | – | 253 nM | – | CCc1c(F)cccc1-c1cc(C(C)(C)C(=O)NS(C)(=O)=O)ccc1O[C@@H]1CC[C@@H](NC(=O)[C@@]2(F)CNC3(CCC3)C2)C1 (single isomer, unassigned) [Example C11]
708 nM | > 10000 nM | – | > 1000 nM | – | – | CC(C)c1c(F)cccc1-c1cc(C(C)(C)C(=O)NS(C)(=O)=O)ccc1O[C@@H]1CC[C@@H](NC(=O)[C@@]2(F)CNC3(CCC3)C2)C1 (single isomer, unassigned) [Example C20]

— US20250188030A1, “Biphenyl and Phenylpyridine Compounds” (Pfizer Inc., priority 2023, published 2025)
